Measurements: patent publication US10633419B2, “Immunomodulators” (BRISTOL-MYERS SQUIBB COMPANY, priority 2014, dated 2020)
Starred links: 1 amine or outer side, 2 acyl side, 3 side chain; linkers in the order of their positions; H or OH if unused. Positions of bridges follow the written chain, without caps; N, C: chain ends. Non-standard residues stand in square brackets, D forms with d. Residues, ends and D or L forms follow the SMILES beside them. Groups on a side chain read outwards from the residue. *: point of attachment. Dap(Nα-HOOC(CH2)16CO)OH = O=C(O)CCCCCCCCCCCCCCCCC(=O)N[C@@H](CN*)C(=O)O; Trp(1-CH2COOH) = N[C@@H](Cc1cn(CC(=O)O)c2ccccc12)C(=O)O; X9 = O=C(O)CCCCCCCCCCCCCCCCC(=O)N[C@@H](CCN*)C(=O)O; C18 diacid = O=C(O)CCCCCCCCCCCCCCCCC(=O)*; γGlu = O=C(O)[C@H](CCC(=O)[*:2])N[*:1]; PEG6 = NCCOCCOCCOCCOCCOCCOCCC(=O)O; Hyp = O=C(O)[C@@H]1C[C@@H](O)CN1; NMeNle = CCCC[C@H](NC)C(=O)O; Pip = O=C(O)[C@@H]1CCCCN1; NMeA = CN[C@@H](C)C(=O)O; Dab = NCC[C@H](N)C(=O)O; Dap = NC[C@H](N)C(=O)O

Molecular target: T1, PD-L1 (Homo sapiens, UniProt Q9NZQ7)
T1 construct: hPDL1(19-239)-TVMV-His; made in house; host or cells: HEK293T
Assay: PD-1/PD-L1 Homogenous Time-Resolved Fluorescence (HTRF) binding assay (PD-1-Ig/PD-L1-His)
Conditions: inhibition of PD-1-Ig binding to PD-L1-TVMV-His; value given as range class; read-out: HTRF IC50
Procedure, shortened: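 Inhibitors pre-incubated 15 min with PD-L1-His (10 nM final), then PD-1-Ig (20 nM final) added for 15 min in dPBS/0.1% BSA/0.05% Tween-20. Eu-cryptate anti-Ig (1 nM) and APC anti-His (20 nM) added, 30 min equilibration, 665/620 nm HTRF ratio read.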

T1 sequence (Q9NZQ7 with tags, fused parts or gaps): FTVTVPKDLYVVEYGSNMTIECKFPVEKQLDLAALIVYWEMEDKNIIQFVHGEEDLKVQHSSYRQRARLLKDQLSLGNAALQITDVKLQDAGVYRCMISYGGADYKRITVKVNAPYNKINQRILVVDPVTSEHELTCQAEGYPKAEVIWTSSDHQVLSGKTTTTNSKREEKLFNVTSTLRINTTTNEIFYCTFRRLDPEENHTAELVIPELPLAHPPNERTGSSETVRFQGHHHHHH

Structure (SMILES) | IC50
CCCC[C@H]1C(=O)N(C)[C@@H](CCCC)C(=O)N[C@@H](CCC(=O)O)C(=O)N[C@H](C(=O)NCC(=O)N[C@@H](Cc2cn(CC[C@H](NC(=O)CCCCCCCCCCCCCCC(=O)O)C(=O)O)nn2)C(=O)NCC(N)=O)CSCC(=O)N[C@@H](Cc2ccc(O)cc2)C(=O)N(C)[C@@H](C)C(=O)N[C@@H](CC(=O)O)C(=O)N2CCC[C@H]2C(=O)N[C@@H](Cc2c[nH]cn2)C(=O)N[C@@H](CCCCN)C(=O)N2C[C@H](O)C[C@H]2C(=O)N[C@@H](Cc2c[nH]c3ccccc23)C(=O)N[C@@H](CCCCN)C(=O)N[C@@H](Cc2c[nH]c3ccccc23)C(=O)N1C [Example 14064] | 0.3 to 9.9 nM
CCCC[C@H]1C(=O)N(C)[C@@H](CCCC)C(=O)N[C@@H](CC(C)C)C(=O)N[C@H](C(=O)NCC(=O)N[C@@H](CC(=O)NCC[C@H](NC(=O)CCCCCCCCCCCCCCCCC(=O)O)C(=O)O)C(=O)O)CSCC(=O)N[C@@H](Cc2ccc(OC)cc2)C(=O)N2CCCC[C@H]2C(=O)N[C@@H](CC(=O)O)C(=O)N2CCC[C@H]2C(=O)N[C@@H](Cc2c[nH]cn2)C(=O)N[C@@H](CCC(N)=O)C(=O)N2C[C@H](O)C[C@H]2C(=O)N[C@@H](Cc2c[nH]c3ccccc23)C(=O)N[C@@H](CCN)C(=O)N[C@@H](Cc2cn(CC(=O)O)c3ccccc23)C(=O)N1C [Example 13157] ({CH2CO}-Y(Me)[Pip]DPHQ[Hyp]W[Dab][Trp(1-CH2COOH)][NMeNle][NMeNle]LCGD(X9)-OH; thioether N-14) | 0.3 to 9.9 nM
CCCC[C@H]1C(=O)N(C)[C@@H](CCCC)C(=O)N[C@@H](CC(C)C)C(=O)N[C@H](C(=O)NCC(=O)N[C@@H](CC(=O)NC[C@H](NC(=O)CCCCCCCCCCCCCCCCC(=O)O)C(=O)O)C(=O)O)CSCC(=O)N[C@@H](Cc2ccc(O)cc2)C(=O)N(C)[C@@H](C)C(=O)N[C@@H](CC(N)=O)C(=O)N2CCC[C@H]2C(=O)N[C@@H](CN)C(=O)N[C@@H](CC(C)C)C(=O)N2C[C@H](O)C[C@H]2C(=O)N[C@@H](Cc2c[nH]c3ccccc23)C(=O)N[C@@H](CCN)C(=O)N[C@@H](Cc2cn(CC(=O)O)c3ccccc23)C(=O)N1C [Example 11172] ({CH2CO}-Y[NMeA]NP[Dap]L[Hyp]W[Dab][Trp(1-CH2COOH)][NMeNle][NMeNle]LCGD(Dap(Nα-HOOC(CH2)16CO)OH)-OH; thioether N-14) | 10 to 99 nM
CCCC[C@H]1C(=O)N(C)[C@@H](CCCC)C(=O)N[C@@H](CC(C)C)C(=O)N[C@H](C(=O)NCC(=O)N[C@@H](CCNC(=O)CC[C@H](NC(=O)CCCCCCCCCCCCCCCCC(=O)O)C(=O)O)C(=O)O)CSCC(=O)N[C@@H](Cc2ccc(O)cc2)C(=O)N2CCCC[C@H]2C(=O)N[C@@H](CC(N)=O)C(=O)N2CCC[C@H]2C(=O)N[C@@H](CN)C(=O)N[C@@H](CC(C)C)C(=O)N2C[C@H](O)C[C@H]2C(=O)N[C@@H](Cc2c[nH]c3ccccc23)C(=O)N[C@@H](CCN)C(=O)N[C@@H](Cc2cn(CC(=O)O)c3ccccc23)C(=O)N1C [Example 13149] ({CH2CO}-Y[Pip]NP[Dap]L[Hyp]W[Dab][Trp(1-CH2COOH)][NMeNle][NMeNle]LCG[Dab]([γGlu-C18 diacid])-OH; thioether N-14) | 10 to 99 nM
CCCC[C@H]1C(=O)N(C)[C@@H](CCCC)C(=O)N[C@@H](CC(C)C)C(=O)N[C@H](C(=O)NCC(=O)N[C@@H](CC(=O)O)C(=O)NCCOCCOCCOCCOCCOCCOCCC(=O)NC[C@H](NC(=O)CCCCCCCCCCCCCCCCC(=O)O)C(=O)O)CSCC(=O)N[C@@H](Cc2ccc(O)cc2)C(=O)N(C)[C@@H](C)C(=O)N[C@@H](CC(N)=O)C(=O)N2CCC[C@H]2C(=O)N[C@@H](CN)C(=O)N[C@@H](CC(C)C)C(=O)N2C[C@H](O)C[C@H]2C(=O)N[C@@H](Cc2c[nH]c3ccccc23)C(=O)N[C@@H](CCN)C(=O)N[C@@H](Cc2cn(CC(=O)O)c3ccccc23)C(=O)N1C [Example 11181] ({CH2CO}-Y[NMeA]NP[Dap]L[Hyp]W[Dab][Trp(1-CH2COOH)][NMeNle][NMeNle]LCGD[PEG6]-{Dap(Nα-HOOC(CH2)16CO)OH}; thioether N-14) | 100 to 1600 nM
CCCCCCCCCCCCCCCCNC(=O)[C@H](CC(=O)O)NC(=O)CCCCCCCCCCNC(=O)[C@@H]1CSCC(=O)N[C@@H](Cc2ccc(O)cc2)C(=O)N(C)[C@@H](C)C(=O)N[C@@H](CC(N)=O)C(=O)N2CCC[C@H]2C(=O)N[C@@H](Cc2cnc[nH]2)C(=O)N[C@@H](CC(C)C)C(=O)N2C[C@H](O)C[C@H]2C(=O)N[C@@H](Cc2c[nH]c3ccccc23)C(=O)N[C@@H](CO)C(=O)N[C@@H](Cc2c[nH]c3ccccc23)C(=O)N(C)[C@@H](CCCC)C(=O)N(C)[C@@H](CCCC)C(=O)N[C@@H](CCCNC(=N)N)C(=O)N1 [Example 11119] | 100 to 1600 nM
